# Test results reported in US8309718B2, “4-pyrazolyl-N-arylpyrimidin-2-amines and 4-pyrazolyl-N-heteroarylpyrimidin-2-amines as janus kinase inhibitors” (Incyte Corporation, priority 2007, dated 2012).
# Target: T1, human JAK2 (Homo sapiens, UniProt O60674)
# T1 construct: JAK2 (a.a. 828-1132); His tag (N); made in house; host or cells: insect cells (baculovirus)
# Assay: In vitro JAK kinase assay (HTRF, phosphorylation of biotinylated peptide)
# Format: biochemical
# Conditions: catalytic domain a.a. 828-1132, 30 μM ATP, 500 nM peptide, room temperature 1 hr; read-out: JAK-2 IC50
# Description: Compounds herein were tested for inhibitory activity of JAK targets according to the following in vitro assay described in Park et al, Analytical Biochemistry 1999, 269, 94-104. The catalytic domains of human JAK1 (a.a. 837-1142), JAK2 (a.a. 828-1132) and JAK3 (a.a. 781-1124) with an N-terminal His tag were expressed using baculovirus in insect cells and purified. The catalytic activity of JAK1, JAK2 or JAK3 was assayed by measuring the phosphorylation of a biotinylated peptide. The phosphorylated peptide was detected by homogenous time resolved fluorescence (HTRF). IC50s of compounds were measured for each kinase in the reactions that contain the enzyme, ATP and 500 nM peptide in 50 mM Tris (pH 7.8) buffer with 100 mM NaCl, 5 mM DTT, and 0.1 mg/mL (0.01%) BSA. The ATP concentration in the reactions was 90 μM for JAK1, 30 μM for Jak2 and 3 μM for JAK3. Reactions were carried out at room temperature for 1 hr and then stopped with 20 μL 45 mM EDTA, 300 nM SA-APC, 6 nM Eu-Py20 in assay buffer (Perkin Elmer, Boston, Mass.). Binding to the Europium labeled antibody took place for 40 minutes and HTRF signal was measured on a Fusion plate reader (Perkin Elmer, Boston, Mass.). Certain of the above compounds were tested according to this assay.
# T1 sequence (O60674 828-1132): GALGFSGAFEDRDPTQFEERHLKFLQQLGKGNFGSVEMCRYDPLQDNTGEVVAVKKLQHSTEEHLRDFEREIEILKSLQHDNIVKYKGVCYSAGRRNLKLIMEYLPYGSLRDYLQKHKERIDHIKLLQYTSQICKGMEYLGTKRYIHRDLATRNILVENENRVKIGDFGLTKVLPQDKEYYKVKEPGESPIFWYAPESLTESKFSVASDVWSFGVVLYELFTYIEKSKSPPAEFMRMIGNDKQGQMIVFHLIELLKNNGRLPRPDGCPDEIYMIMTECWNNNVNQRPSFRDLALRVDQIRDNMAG
row,SMILES,IC50
1,"N#CCC(C1CCCC1)n1cc(-c2ccnc(Nc3ccc(NS(=O)(=O)c4ccc(N5CCOCC5)nc4)cc3)n2)cn1 (racemic) [Example 197, N-(4-(4-(1-(2-cyano-1-cyclopentylethyl)-1H-pyrazol-4-yl)pyrimidin-2-ylamino)phenyl)-6-morpholinopyridine-3-sulfonamide]",< 100 nM
2,"N#CCC(C1CCCC1)n1cc(-c2ccnc(Nc3ccc(NS(=O)(=O)c4ccc(Cl)s4)cc3)n2)cn1 (racemic) [Example 196, 5-chloro-N-(4-(4-(1-(2-cyano-1-cyclopentylethyl)-1H-pyrazol-4-yl)pyrimidin-2-ylamino)phenyl)thiophene-2-sulfonamide]",< 100 nM
3,"Cc1cnc(Nc2ccc(-c3cnco3)cc2)nc1-c1cnn(C(CC#N)C2CCCC2)c1 (racemic) [Example 74, 3-cyclopentyl-3-(4-(5-methyl-2-(4-(oxazol-5-yl)phenylamino)pyrimidin-4-yl)-1H-pyrazol-1-yl)propanenitrile]",< 100 nM
4,"COC(=O)Nc1ccc(Nc2ncc(C)c(-c3cnn(C(CC#N)C4CCCC4)c3)n2)cc1 (racemic) [Example 90, Methyl 4-(4-(1-(2-cyano-1-cyclopentylethyl)-1H-pyrazol-4-yl)-5-methylpyrimidin-2-ylamino)phenylcarbamate]",< 100 nM
5,"N#CCC(CC1CCNCC1)n1cc(-c2ccnc(Nc3ccc(N4CCOCC4=O)cc3)n2)cn1 (racemic) [Example 92, 3-(4-(2-(4-(3-oxomorpholino)phenylamino)pyrimidin-4-yl)-1H-pyrazol-1-yl)-4-(piperidin-4-yl)butanenitrile]",> 100 nM
6,"Cn1ccc(S(=O)(=O)N2CCC(CC(CC#N)n3cc(-c4ccnc(Nc5ccc(N6CCOCC6)cc5)n4)cn3)CC2)n1 (racemic) [Example 55, 4-(1-(1-methyl-1H-pyrazol-3-ylsulfonyl)piperidin-4-yl)-3-(4-(2-(4-morpholinophenylamino)pyrimidin-4-yl)-1H-pyrazol-1-yl)butanenitrile]",< 100 nM
7,"N#CCC(C1CCN(S(=O)(=O)c2ccccc2)CC1)n1cc(-c2ccnc(Nc3ccc(N4CCOCC4)cc3)n2)cn1 (racemic) [Example 25, 3-(4-(2-(4-morpholinophenylamino)pyrimidin-4-yl)-1H-pyrazol-1-yl)-3-(1-(phenylsulfonyl)piperidin-4-yl)propanenitrile]",< 100 nM
8,"Cc1cc(OC2CCC(CC#N)(n3cc(-c4ccnc(Nc5ccc(N6CCCCC6=O)cc5)n4)cn3)CC2)no1 (single isomer, unassigned) [Example 245, 2-(4-(5-methylisoxazol-3-yloxy)-1-(4-(2-(4-(2-oxopiperidin-1-yl)phenylamino)pyrimidin-4-yl)-1H-pyrazol-1-yl)cyclohexyl)acetonitrile]",< 100 nM
9,"CC(=O)N1CCC(C(CC#N)n2cc(-c3ccnc(Nc4ccc(N5CCOCC5)cc4)n3)cn2)CC1 (racemic) [Example 26, 3-(1-acetylpiperidin-4-yl)-3-(4-(2-(4-morpholinophenylamino)pyrimidin-4-yl)-1H-pyrazol-1-yl)propanenitrile]",< 100 nM
10,"N#CCC(CC1CCN(C(=O)c2ccc(F)cc2F)CC1)n1cc(-c2ccnc(Nc3cccc(-c4cnco4)c3)n2)cn1 (racemic) [Example 7, 4-(1-(2,4-difluorobenzoyl)piperidin-4-yl)-3-(4-(2-(3-(oxazol-5-yl)phenylamino)pyrimidin-4-yl)-1H-pyrazol-1-yl)butanenitrile]",< 100 nM
11,"N#CCC(C1CCC1)n1cc(-c2ccnc(Nc3ccc(N4CCOCC4)cc3)n2)cn1 (racemic) [Example 171, 3-cyclobutyl-3-(4-(2-(4-morpholinophenylamino)pyrimidin-4-yl)-1H-pyrazol-1-yl)propanenitrile]",< 100 nM
12,"N#CCC(C1CC1)n1cc(-c2ccnc(Nc3ccc(N4CCOCC4)cc3)n2)cn1 (racemic) [Example 177, 3-cyclopropyl-3-(4-(2-(4-morpholinophenylamino)pyrimidin-4-yl)-1H-pyrazol-1-yl)propanenitrile]",< 100 nM
13,"N#CCC(C1CCCC1)n1cc(-c2ccnc(Nc3cccc(C(=O)N4CCC4)c3)n2)cn1 (racemic) [Example 142, 3-(4-(2-(3-(azetidine-1-carbonyl)phenylamino)pyrimidin-4-yl)-1H-pyrazol-1-yl)-3-cyclopentylpropanenitrile]",< 100 nM
14,"CN(C)C(=O)C1CCN(C(=O)c2ccc(Nc3nccc(-c4cnn(C(CC#N)C5CCCC5)c4)n3)cc2)CC1 (racemic) [Example 234, 1-(4-(4-(1-(2-cyano-1-cyclopentylethyl)-1H-pyrazol-4-yl)pyrimidin-2-ylamino)benzoyl)-N,N-dimethylpiperidine-4-carboxamide]",< 100 nM
15,"N#CCC1(n2cc(-c3ccnc(Nc4cccc(-c5cnco5)c4)n3)cn2)CC(C#N)C1 (single isomer, unassigned) [Example 343, 3-(cyanomethyl)-3-[4-(2-{[3-(1,3-oxazol-5-yl)phenyl]amino}pyrimidin-4-yl)-1H-pyrazol-1-yl]cyclobutanecarbonitrile]",< 100 nM
16,"CN(C)C(=O)c1ccc(Nc2nccc(-c3cnn(C(CC#N)CC4CCN(C(=O)c5ccc(F)cc5F)CC4)c3)n2)cc1 (racemic) [Example 59, 4-(4-(1-(1-cyano-3-(1-(2,4-difluorobenzoyl)piperidin-4-yl)propan-2-yl)-1H-pyrazol-4-yl)pyrimidin-2-ylamino)-N,N-dimethylbenzamide]",< 100 nM
17,"Cc1nccc(-c2cccc(Nc3nccc(-c4cnn(C(CC#N)C5CCCC5)c4)n3)c2)n1 (racemic) [Example 99, 3-cyclopentyl-3-(4-(2-(3-(2-methylpyrimidin-4-yl)phenylamino)pyrimidin-4-yl)-1H-pyrazol-1-yl)propanenitrile]",< 100 nM
18,"N#CCC(C1CCCC1)n1cc(-c2ccnc(Nc3ccc(NC(=O)CN4CC[C@@H](O)C4)cc3)n2)cn1 (stereo partly drawn) [Example 204, N-(4-(4-(1-(2-cyano-1-cyclopentylethyl)-1H-pyrazol-4-yl)pyrimidin-2-ylamino)phenyl)-2-((R)-3-hydroxypyrrolidin-1-yl)acetamide]",< 100 nM
19,"COc1cnc(Nc2cccc(N3CCCS3(=O)=O)c2)nc1-c1cnn(C(CC#N)C2CC2)c1 (racemic) [Example 346, 3-cyclopropyl-3-[4-(2-{[3-(1,1-dioxidoisothiazolidin-2-yl)phenyl]amino}-5-methoxypyrimidin-4-yl)-1H-pyrazol-1-yl]propanenitrile]",< 100 nM
20,"N#CCC(C1CCCC1)n1cc(-c2ccnc(Nc3cccc(NC(=O)CN4CC[C@@H](O)C4)c3)n2)cn1 (mixture of isomers) [Example 237, N-(3-(4-(1-(2-cyano-1-cyclopentylethyl)-1H-pyrazol-4-yl)pyrimidin-2-ylamino)phenyl)-2-((R)-3-hydroxypyrrolidin-1-yl)acetamide]",< 100 nM
21,"COC(=O)Nc1cccc(Nc2nccc(-c3cnn(C(CC#N)C4CCCC4)c3)n2)c1 (racemic) [Example 116, Methyl 3-(4-(1-(2-cyano-1-cyclopentylethyl)-1H-pyrazol-4-yl)pyrimidin-2-ylamino)phenylcarbamate]",< 100 nM
22,"N#CCC(C1CCCC1)n1cc(-c2ccnc(Nc3ccccc3)n2)cn1 (racemic) [Example 36, 3-cyclopentyl-3-(4-(2-(phenylamino)pyrimidin-4-yl)-1H-pyrazol-1-yl)propanenitrile]",< 100 nM
